Where two headings read alike, the source gives them in different places.

The term half-life denotes the time needed for the level to fall by half in the phase considered. One may read the IC50 as the midpoint of a concentration-inhibition curve.

A short description of data set [1]: Stability in ethanol at room temperature. The format is physicochemical. The text has this: PX-916 was stable as a stock solution in ethanol at room temperature with a half life of >5 days. […] Therefore, for in vitro studies PX-916 was used as a stock solution in ethanol, and for in vivo studies made fresh in pH 4.0 buffer vehicle.
Data set [2] deals with T1, human glutathione reductase (Homo sapiens, UniProt P00390).
T1 sequence (P00390 45-522 limits assumed): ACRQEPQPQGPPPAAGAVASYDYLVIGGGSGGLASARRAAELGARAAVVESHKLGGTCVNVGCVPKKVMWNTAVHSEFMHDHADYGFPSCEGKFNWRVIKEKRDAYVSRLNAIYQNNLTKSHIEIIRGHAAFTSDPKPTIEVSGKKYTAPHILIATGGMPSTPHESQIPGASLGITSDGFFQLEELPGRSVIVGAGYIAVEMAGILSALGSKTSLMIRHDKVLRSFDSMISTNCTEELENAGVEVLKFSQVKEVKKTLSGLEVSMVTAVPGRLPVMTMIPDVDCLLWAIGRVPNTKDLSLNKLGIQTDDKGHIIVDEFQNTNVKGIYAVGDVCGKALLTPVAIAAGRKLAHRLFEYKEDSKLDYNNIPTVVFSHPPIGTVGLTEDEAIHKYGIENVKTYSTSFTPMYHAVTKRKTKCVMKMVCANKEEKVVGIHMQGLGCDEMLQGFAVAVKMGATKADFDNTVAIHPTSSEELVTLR
The data set can be described thus: Inhibition of human glutathione reductase (selectivity). The format is biochemical. How it is done: (§1) Based upon the observation that PX-916 was rapidly converted to PX-960 in aqueous solution, the ability of PX-960 to inhibit purified human TR was measured and found to be similar to that of PX-916 (Table 2). PX-916 was a selective inhibitor of human TR compared to two other NADPH dependent reductases with a selectivity of at least 200 for human glutathione reductase and human cytochrome P-450 reductase (Table 3).

In data set [3] the test system is VEGF. The data set can be described thus: Tumor VEGF immunohistochemistry in MCF-7 xenografts. The format is in vivo, mouse. The following applies: five daily doses of 25 mg/kg, 24 hours after last dose. As to the method: FIG. 5. Inhibition of tumor HIF-1α, VEGF and thioredoxin reductase by repeated administration of PX-916. Female scid mice were implanted 1d previously with a 90-d 17β-estradiol slow release pellet were inoculated s.c. with 10^7 MCF-7 human breast cancer cells. When the tumors were 300 mm^3, vehicle or 25 mg/kg/d PX-916 was given i.v. for five doses. Twenty four hours later, the tumors were removed and stained by immunohistochemistry for HIF-1α and VEGF (A) or assayed for thioredoxin reductase activity (B). Columns mean of four mice, SE. P≦0.05.
Levels of the HIF-1α transcription factor and its downstream target VEGF are increased by thioredoxin-1 expression. We examined the effect of PX-916 administration on tumor HIF-1α and VEGF levels (FIG. 5A). Twenty-four hours after the last dose of five daily doses of PX-916 of 25 mg/kg, there was a decrease in MCF-7 xenograft staining for both HIF-1α and VEGF. At the same time, levels of tumor thioredoxin reductase activity were decreased by 75% (FIG. 5B).

A short description of data set [4]: Plasma levels in mice after i.v. administration. The format is in vivo, mouse. The arrangement: dose or concentration left out as unconfirmed. The following applies: PX-916 i.v. to mice, 5 minutes after administration. As to the method:
Two metabolite peaks could be seen at 5 minutes, but were undetectable by 30 minutes.

Data set [5] addresses T2, human cytochrome P-450 reductase (Homo sapiens, UniProt P16435).
T2 sequence (P16435 1-677): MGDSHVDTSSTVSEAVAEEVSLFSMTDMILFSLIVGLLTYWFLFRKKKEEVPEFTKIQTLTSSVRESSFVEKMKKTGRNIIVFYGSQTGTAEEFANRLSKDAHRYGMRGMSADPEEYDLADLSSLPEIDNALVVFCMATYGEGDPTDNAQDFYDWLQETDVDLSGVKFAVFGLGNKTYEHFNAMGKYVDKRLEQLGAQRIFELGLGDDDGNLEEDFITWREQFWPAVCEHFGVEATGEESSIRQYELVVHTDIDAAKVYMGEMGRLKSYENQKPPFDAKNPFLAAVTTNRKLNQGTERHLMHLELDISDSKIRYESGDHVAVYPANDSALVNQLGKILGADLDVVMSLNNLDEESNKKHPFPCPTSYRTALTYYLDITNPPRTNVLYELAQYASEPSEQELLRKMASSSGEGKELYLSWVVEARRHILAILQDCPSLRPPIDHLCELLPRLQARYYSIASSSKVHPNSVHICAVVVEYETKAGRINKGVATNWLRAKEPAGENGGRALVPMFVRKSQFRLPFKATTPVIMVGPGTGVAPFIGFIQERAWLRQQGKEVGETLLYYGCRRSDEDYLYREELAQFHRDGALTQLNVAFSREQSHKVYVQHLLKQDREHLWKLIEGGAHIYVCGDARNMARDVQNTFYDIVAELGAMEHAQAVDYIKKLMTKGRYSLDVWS
As to the kind of experiment: Inhibition of human cytochrome P-450 reductase (selectivity). The format is biochemical. As to the method:
as §1

The target in data set [6] is T3, human cytochrome P-450 reductase (versus human thioredoxin reductase, TR) (Homo sapiens, UniProt P16435).
T3 sequence (P16435 1-677): T2 sequence (P16435 1-677)
The data set is described as above. The format is biochemical. The following applies: human. How it is done:
as §1

For data set [7], the system named is A-673 human rhabdomyosarcoma xenografts. The data set can be described thus: Antitumor activity, A-673 rhabdomyosarcoma xenograft. The format is in vivo, mouse. Also noted: dose or concentration left out as unconfirmed. The settings on record: ip. As to the method: FIG. 4. Antitumor activity of PX-916. A. Female beige nude mice were inoculated subcutaneously (s.c.) with 10^7 A-673 rhabdomyosarcoma cells. […] B. Female scid mice were inoculated s.c. with 10^7 SHP-77 human small cell lung cancer cells. When tumors were 130 mm^3 on day 17 (arrow) dosing was begun with (∘) vehicle alone; (▪) PX-916 10 mg/kg i.v. daily for 8 doses; (▴) PX-916 25 mg/kg i.v. daily for 5 doses. C. Female scid mice implanted 1 day previously with a 17-β-estradiol 60 day slow release pellet were inoculated s.c. with 10^7 MCF-7 human breast cancer cells. When tumors were 180 mm^3 on day 8 (arrow) dosing was begun with (∘) vehicle alone; (⋄) PX-916 27.5 mg/kg i.v. daily for 5 doses. In both A and B values are the mean of 8 mice per group and bars are SE.
A single intravenous (i.v.) dose of PX-916 of 25 mg/kg inhibited MCF-7 human tumor xenograft TR up to about 60% at 24 hr and the inhibition was maintained for at least 48 hr (FIG. 3C). […] In this study 3 of eight nice had no histologically detectable tumor when the study was terminated on day 42.

With `NCC(=O)Oc1ccc2c3c(cccc13)OC1(C=CC(=O)c3c(O)cccc31)O2` (centres unmarked) [PX-916, O-glycyl naphthoquinone spiroketal], the “half life of stock solution in ethanol” value in data set [1] (b145) was greater than 120 h. The half-life in data set [1] (ethanol, b120, read-out: half-life for conversion to PX-960 in ethanol) is greater than 120 h. In addition, the “concentration increase needed to inhibit glutathione reductase” value in data set [2] is listed as “greater than 100 fold”. The “selectivity for human TR vs human glutathione reductase” value in data set [2] was “at least 200”. In addition, the “Selectivity for TR vs glutathione reductase” value in data set [2] (Table 3) is recorded as greater than 200. Also, the IC50 is greater than 50 µM in data set [2] (Table 3, read-out: Inhibition IC50, glutathione reductase (red blood cell)) and 29.2 µM in data set [5] (Table 3, read-out: Inhibition IC50, cytochrome P-450 reductase (recombinant)). Moreover, the “MCF-7 xenograft staining for VEGF” value in data set [3] is “decrease”. Moreover, the “detection of PX-916 in plasma” value in data set [4] was “could not be detected”. Also, the “concentration increase needed to inhibit cytochrome P-450 reductase” value in data set [5] is on record as “greater than 100 fold”. Moreover, the selectivity ratio in data set [6] (Table 3, read-out: Selectivity for TR vs cytochrome P-450 reductase) is 104; in data set [6] (read-out: selectivity for human TR vs human cytochrome P-450 reductase), no less than 200. Further, in data set [7], the tumor growth inhibition is 97%. Further, the tumor growth rate in data set [7] (5 days after dosing) worked out at 5±3 mm^3/d.

The record behind these values is patent US20120226031A1, “PALMARUMYCIN BASED INHIBITORS OF THIOREDOXIN AND METHODS OF USING SAME” (ARIZONA BOARD OF REGENTS, ACTING ON BEHALF OF THE …, priority 2005, published 2012).
